From US6500431B1, “Inhibitors of angiogenesis and tumor growth” (University of Southern California, priority 1998, dated 2002)
No end group written: not given here.

What was measured:
Format in all cases: cell-based
KS Y-1 cells = assay: KS Y-1 cell proliferation assay (MTT); conditions: for Cell Proliferation Activity (% of control), KSY-1: concentration not printed; for Cell Proliferation Activity (% of control), KSY-1 / KS Cell Proliferation, % of Control: 5 days, MTT; for KS Cell Proliferation, % of Control: 7,500 KS Y-1 cells/well
Description: (§1) To determine if Saposin B polypeptides had anti-angiogenic activity, a series of overlapping polypeptides were synthesized and tested in the KS Y-1 cell proliferation assay. The overlapping polypeptides are SEQ ID NOS:13 though 42. Cell Proliferation assays in either KS cells or fibroblast. Cells were plated in 48 well plates at equal numbers in appropriate culture medium. Cells were treated with the test compounds at various concentrations on day one, and on day 3. MTT was done on day 5. KS cells were used to represent the activated endothelial cells, while fibroblast cells represent the control cells. The results are remarkable for the lack of toxicity to the fibroblast relative to the activated endothelial cells/KS cells.

T1 cells = assay: Fibroblast proliferation assay (MTT); conditions: for Cell Proliferation Activity (% of control), T1: concentration not given, 5 days; for Fibroblast Proliferation, % of Control: 5000 T1 cells/well, 7 days
Description: as §1, with “MTT was done on day 5.” left out

[1] = test system: endothelial cells (HUVEC); assay: Growth inhibition of endothelial cells; conditions: for activity against endothelial cells: Saposin C: highest concentration tested 50 μg/mL
Description: FIG. 1D: Activity of n-terminus decapeptide (DVCQDCIQMV; SEQ ID NO 21).
FIG. 1E: Activity of N-terminus pentapeptide (DVCQC; SEQ ID NO: 28).
(§2) By SDS-PAGE, the bacterial product was smaller than the eukaryotic protein. Because prokaryotically expressed proteins are not glycosylated, the difference in molecular weights probably represents the presence of carbohydrate in the eukaryotic protein. Recombinant proteins were then tested in KS, endothelial and control cell lines. Activity was found only in KS cell lines and endothelial cells.

KS cell lines = assay: Activity of recombinant Prosaposin chains on growth of KS cell lines; conditions: Saposin C: highest concentration tested 50 μg/mL
Excerpt: In order to determine whether recombinant Saposin B has anti-angiogenic activity, the coding region of each of the Prosaposin chains was amplified from fibroblast cell lines and cloned into both bacterial (pGEX-KG) and eukaryotic (pcDNA 3.1His A) expression vectors.
The PCR products were digested with the respective restriction enzymes and the restriction products were inserted into the pGEX-KG vector for bacterial expression. pGEX-KG vector comprises a glutathione S transferase (GST)-tag at the […] of the insertion site so that a GST-fusion protein is expressed. The GST-tag is used to aid in purification of the recombinant protein. After elution from a glutathione-Sepharose 4B column, the GST-tagged proteins were incubated with thrombin (4 μg/ml) for 4 hr at room temperature (22-25° C.) in 50 mM Tris, pH 8.3, 3 mM CaCl2, 150 mM NaCl to cleave GST from the fusion protein. Free GST was removed from the preparation by passing the digested fusion protein through the glutathione-Sepharose 4B column.
as §2

[2] = first of two KSY-1 value columns
[3] = second of two KSY-1 value columns

CQDCIQMV [SEQ ID NO:30]
Cell Proliferation Activity (% of control), KSY-1 (KS Y-1 cells; [2]): 77 % of control
Cell Proliferation Activity (% of control), KSY-1 (KS Y-1 cells; [3]): 35 % of control
Cell Proliferation Activity (% of control), T1 (T1 cells): 84 % of control
Cell Proliferation Activity (% of control), T1 (T1 cells; first of two T1 value columns): 92 % of control

DCIQMV [SEQ ID NO:23]
KS Cell Proliferation, % of Control (KS Y-1 cells; 1 μg/mL): 88.7 % of Control
KS Cell Proliferation, % of Control (KS Y-1 cells; 5 μg/mL): 83.5 % of Control
KS Cell Proliferation, % of Control (KS Y-1 cells; 10 μg/ml): 68.7 % of Control
KS Cell Proliferation, % of Control (KS Y-1 cells; 50 μg/mL): 51.3 % of Control
Cell Proliferation Activity (% of control), KSY-1 (KS Y-1 cells; [2]): 68 % of control
Cell Proliferation Activity (% of control), KSY-1 (KS Y-1 cells; [3]): 51 % of control

DVCQDC [SEQ ID NO:27]
Cell Proliferation Activity (% of control), KSY-1 (KS Y-1 cells; [2]): 60 % of control
Cell Proliferation Activity (% of control), KSY-1 (KS Y-1 cells; [3]): 22 % of control
Cell Proliferation Activity (% of control), T1 (T1 cells): 75 % of control
Cell Proliferation Activity (% of control), T1 (T1 cells; first of two T1 value columns): 88 % of control

DVCQDCI [SEQ ID NO:26]
Cell Proliferation Activity (% of control), KSY-1 (KS Y-1 cells; [2]): 72 % of control
Cell Proliferation Activity (% of control), KSY-1 (KS Y-1 cells; [3]): 40 % of control
Cell Proliferation Activity (% of control), T1 (T1 cells): 81 % of control
Cell Proliferation Activity (% of control), T1 (T1 cells; first of two T1 value columns): 96 % of control

DVCQDCIQ [SEQ ID NO:25]
Cell Proliferation Activity (% of control), KSY-1 (KS Y-1 cells; [2]): 72 % of control
Cell Proliferation Activity (% of control), KSY-1 (KS Y-1 cells; [3]): 39 % of control
Cell Proliferation Activity (% of control), T1 (T1 cells): 89 % of control
Cell Proliferation Activity (% of control), T1 (T1 cells; first of two T1 value columns): 98 % of control

DVCQDCIQM [SEQ ID NO:24]
Cell Proliferation Activity (% of control), KSY-1 (KS Y-1 cells; [2]): 68 % of control
Cell Proliferation Activity (% of control), KSY-1 (KS Y-1 cells; [3]): 46 % of control
Cell Proliferation Activity (% of control), T1 (T1 cells): 84 % of control
Cell Proliferation Activity (% of control), T1 (T1 cells; first of two T1 value columns): 96 % of control

DVCQDCIQMV [SEQ ID NO:21]
growth inhibition of endothelial cells ([1]; FIG. 1, 1D, 1E): Only endothelial cells show dose dependent growth inhibition
KS Cell Proliferation, % of Control (KS Y-1 cells; 1 μg/mL): 88.7 % of Control
KS Cell Proliferation, % of Control (KS Y-1 cells; 5 μg/mL): 68.7 % of Control
KS Cell Proliferation, % of Control (KS Y-1 cells; 10 μg/ml): 26.1 % of Control
KS Cell Proliferation, % of Control (KS Y-1 cells; 50 μg/mL): 7.0 % of Control
Cell Proliferation Activity (% of control), KSY-1 (KS Y-1 cells; [2]): 29 % of control
Fibroblast Proliferation, % of Control (T1 cells; 1 μg/mL): 100.0 % of Control
Fibroblast Proliferation, % of Control (T1 cells; 10 μg/mL): 91.3 % of Control
Fibroblast Proliferation, % of Control (T1 cells; 50 μg/mL): 87.0 % of Control

GDVCQ [SEQ ID NO:22]
KS Cell Proliferation, % of Control (KS Y-1 cells; 1 μg/mL): 158.3 % of Control
KS Cell Proliferation, % of Control (KS Y-1 cells; 5 μg/mL): 77.4 % of Control
KS Cell Proliferation, % of Control (KS Y-1 cells; 10 μg/ml): 59.1 % of Control
KS Cell Proliferation, % of Control (KS Y-1 cells; 50 μg/mL): 37.4 % of Control
Cell Proliferation Activity (% of control), KSY-1 (KS Y-1 cells; [2]): 59 % of control
Cell Proliferation Activity (% of control), KSY-1 (KS Y-1 cells; [3]): 28 % of control
Fibroblast Proliferation, % of Control (T1 cells; 1 μg/mL): 95.7 % of Control
Fibroblast Proliferation, % of Control (T1 cells; 10 μg/mL): 95.7 % of Control
Fibroblast Proliferation, % of Control (T1 cells; 50 μg/mL): 87.0 % of Control

GDVCQDSIQMV [SEQ ID NO:33, GDVCQDSIQMV]
IC50 (KS Y-1 cells): 7.8 µM

GDVSQDCIQMV [SEQ ID NO:32, GDVSQDCIQMV]
IC50 (KS Y-1 cells): 18 µM

GDVSQDSIQMV [SEQ ID NO:20]
KS Cell Proliferation, % of Control (KS Y-1 cells; 1 μg/mL): 100.0 % of Control
KS Cell Proliferation, % of Control (KS Y-1 cells; 5 μg/mL): 96.4 % of Control
KS Cell Proliferation, % of Control (KS Y-1 cells; 10 μg/ml): 92.9 % of Control
KS Cell Proliferation, % of Control (KS Y-1 cells; 50 μg/mL): 82.1 % of Control
Cell Proliferation Activity (% of control), KSY-1 (KS Y-1 cells; [2]): 93 % of control
Cell Proliferation Activity (% of control), KSY-1 (KS Y-1 cells; [3]): 84 % of control
Fibroblast Proliferation, % of Control (T1 cells; 1 μg/mL): 91.3 % of Control
Fibroblast Proliferation, % of Control (T1 cells; 10 μg/mL): 95.7 % of Control
Fibroblast Proliferation, % of Control (T1 cells; 50 μg/mL): 95.7 % of Control

IQMVTDIQTAVRTNSTF [SEQ ID NO:14]
KS Cell Proliferation, % of Control (KS Y-1 cells; 10 μg/ml): 89.3 % of Control
KS Cell Proliferation, % of Control (KS Y-1 cells; 100 μg/mL): 60.7 % of Control
KS Cell Proliferation, % of Control (KS Y-1 cells; 500 μg/mL): 28.6 % of Control

QDCIQMV [SEQ ID NO:31, QDCIQMV]
IC50 (KS Y-1 cells): 16.6 µM
Cell Proliferation Activity (% of control), KSY-1 (KS Y-1 cells; [2]): 74 % of control
Cell Proliferation Activity (% of control), T1 (T1 cells): 80 % of control
Cell Proliferation Activity (% of control), T1 (T1 cells; first of two T1 value columns): 87 % of control

QMMMHMQPKEICALVG [SEQ ID NO:18]
KS Cell Proliferation, % of Control (KS Y-1 cells; 10 μg/ml): 88.9 % of Control
KS Cell Proliferation, % of Control (KS Y-1 cells; 100 μg/mL): 86.4 % of Control
KS Cell Proliferation, % of Control (KS Y-1 cells; 500 μg/mL): 58.0 % of Control

QMVTDIQTQVRTNSTF [SEQ ID NO:43, QMVTDIQTQVRTNSTF]
IC50 (KS Y-1 cells): 14 µM

QPKDNGDVCQDCIQV [SEQ ID NO:13]
KS Cell Proliferation, % of Control (KS Y-1 cells; 1 μg/mL): 51.8 % of Control
KS Cell Proliferation, % of Control (KS Y-1 cells; 10 μg/ml): 17.9 % of Control
KS Cell Proliferation, % of Control (KS Y-1 cells; 50 μg/mL): 1.8 % of Control
KS Cell Proliferation, % of Control (KS Y-1 cells; 100 μg/mL): 1.8 % of Control
KS Cell Proliferation, % of Control (KS Y-1 cells; 500 μg/mL): 1.8 % of Control

STFVQALVEHVKEECDR [SEQ ID NO:15]
KS Cell Proliferation, % of Control (KS Y-1 cells; 10 μg/ml): 101.8 % of Control
KS Cell Proliferation, % of Control (KS Y-1 cells; 100 μg/mL): 60.7 % of Control
KS Cell Proliferation, % of Control (KS Y-1 cells; 500 μg/mL): 28.6 % of Control

VCQDCIQMV [SEQ ID NO:29]
Cell Proliferation Activity (% of control), KSY-1 (KS Y-1 cells; [2]): 65 % of control
Cell Proliferation Activity (% of control), KSY-1 (KS Y-1 cells; [3]): 33 % of control
Cell Proliferation Activity (% of control), T1 (T1 cells): 86 % of control
Cell Proliferation Activity (% of control), T1 (T1 cells; first of two T1 value columns): 95 % of control

YISQYSEIAIQMMMHMQP [SEQ ID NO:17, YISQYSEIAIQMMMHMQP]
IC50 (KS Y-1 cells): 20 µM
KS Cell Proliferation, % of Control (KS Y-1 cells; 10 μg/ml): 96.3 % of Control
KS Cell Proliferation, % of Control (KS Y-1 cells; 100 μg/mL): 86.4 % of Control
KS Cell Proliferation, % of Control (KS Y-1 cells; 500 μg/mL): 46.9 % of Control

B1: Saposin A: sphingolipid-binding glycoprotein derived from Prosaposin; recombinant (protein, UniProt P07602 60-142, looked up)
Saposin-A: SLPCDICKDVVTAAGDMLKDNATEEEILVYLEKTCDWLPKPNMSASCKEIVDSYLPVILDIIKGEMSRPGEVCSALNLCESLQ
modifications: Saposin-A
notes: recombinant
activity against endothelial cells [1]: no activity
activity against KS cell lines (KS cell lines): no activity

B2: Saposin D: sphingolipid-binding glycoprotein derived from Prosaposin; recombinant (protein, UniProt P07602 405-486, looked up)
Saposin-D: DGGFCEVCKKLVGYLDRNLEKNSTKQEILAALEKGCSFLPDPYQKQCDQFVAEYEPVLIEILVEVMDPSFVCLKIGACPSAH
modifications: Saposin-D
notes: recombinant
activity against endothelial cells [1]: no activity
activity against KS cell lines (KS cell lines): no activity

B3: Saposin C: sphingolipid-binding glycoprotein derived from Prosaposin; recombinant (protein, UniProt P07602 311-390, looked up)
Saposin-C: SDVYCEVCEFLVKEVTKLIDNNKTEKEILDAFDKMCSKLPKSLSEECQEVVDTYGSSILSILLEEVSPELVCSMLHLCSG
modifications: Saposin-C
notes: recombinant
activity against endothelial cells [1]: no activity
activity against KS cell lines (KS cell lines): no activity
